A value given as a limit tells only on which side of the number the result lay.

The term melting point denotes the temperature of the solid-liquid transition. Compound `O=C1c2ccccc2C(=O)N1CCc1cn2ccccc2n1` had a melting point of 181 to 182 °C.
Compound `CC(O)(C#Cc1ccc(S(=O)(=O)c2ccncc2)cc1)C(F)(F)F` (stereo not drawn) came in with a melting point of 122 to 125 °C.
In the case of `Oc1ccc2c(c1)C1CNCC(C2)C1` (stereo not drawn) it was 215 to 217 °C.
Under `CN(Nc1ccccc1COc1ccn(-c2ccc(Cl)cc2)n1)C(N)=O` stands 152 to 154 °C.
In the case of `CC1(C)CCC(C)(C)c2cc(C#CCc3ccc(C(=O)O)cc3)ccc21` it was 159 to 160 °C; in that of `O=C(NC1CCCCC1)NC1(N=NC2(NC(=O)NC3CCCCC3)CCCCC2)CCCCC1`, 105 to 109 °C; in that of `CCSc1snc(OCOCC#CI)c1C#N`, 57 to 58 °C.
`O=P(O)(O)C(O)(CCc1nccn1Cc1ccccc1)P(=O)(O)O` came in with a melting point of 238 °C.
On to `Cc1ccc(C(=O)Nc2c(NC(=O)CN3CCN(c4ncccn4)CC3)ccc3c2C(=O)c2ccccc2C3=O)cc1`, for which the melting point lay in the range of 267 to 268 °C.
In the case of `COc1cc2c(cc1OC)C(C(=O)O)C(c1ccc(OCc3ccccc3)c(OCc3ccccc3)c1)N(C)C2=O` (stereo not drawn) it was 194 to 196 °C.
Turning to `COc1ccc(C2(C#N)CC2)cc1OC1CCCC1`, the melting point was 80.4 °C.
`O=C(NC1CCc2ccccc2C1=O)c1ccccc1` (stereo not drawn): the melting point stood at 175 °C.
For the compound `CCOc1ccc(CC2SC(=N)NC2=O)cc1OCC` (stereo not drawn), the melting point was 171 to 172 °C.
In the case of `N#CCCNC(=O)c1cccc(-c2ccc3c(c2)C(Oc2cccc(C(F)(F)F)c2)CC3)c1` (stereo not drawn) it was 120 to 121 °C; in that of `CC1(C)COC(=S)N(Cc2ccccc2NS(=O)(=O)C(F)(F)F)C1`, 130 °C; in that of `CCc1cccc2c(/C=C/C(=O)N3CCCCC3)cc(OC)c(O)c12`, 85 to 86 °C.
In the case of `COc1cccc(Nc2nnc(Cc3ccncc3)c3ccccc23)c1` it was 118 to 120 °C; in that of `COC(=O)c1cncn1C1c2ccsc2CC1(C)C` (stereo not drawn), 62 to 63 °C; in that of `CCn1ncnc1COc1nn2c(-c3ccccc3F)nncc2c1-c1ccccc1F`, 164 °C.
Under `Clc1ccc(C=Cc2nc[nH]n2)cc1` stands 178 to 182 °C; under `O=C1c2cc3c(cc2CCC1Br)OCC3` (stereo not drawn), 106 °C.
`CN[C@H]1CC[C@H](CO)CC1` came in with a melting point of 87 to 88 °C.
In the case of `Cn1c(C#N)c(C#N)n(-c2cc(O)c(Cl)cc2F)c1=O` it was 210 to 212 °C; in that of `CCCCCCCN(CC)C(=O)Cc1ccc(N)cc1`, 172 to 174 °C.
In the case of `C=Cc1cccc(C(OS(=O)(=O)c2ccc(Cl)cc2)(C(F)(F)F)C(F)(F)F)c1` it was 70 °C.
In the case of `c1ncn(-c2cc3cc[nH]c3cn2)n1` it was 203 to 205 °C.
`COC(=O)c1ccc2oc(-c3cccs3)nc2c1` showed a melting point of 141 to 142 °C.
In the case of `O=C1CCCc2ccc3ccccc3c21` it was 64 to 66 °C.
In the case of `CCOC(=O)c1cn(CC)c2c(C)c(F)c(F)cc2c1=O` it was 177 to 180 °C.
In the case of `O=C(O)c1cc(C(=O)O)cc(P(=O)(O)O)c1` it was 360 °C.
The compound `Cc1cccc2[nH]c3c(c(C)nn3-c3ccccn3)c(=O)c12` had a melting point of 183 to 186 °C.
In the case of `CCc1ccc2ncc(NC(=O)C=Cc3cc(OC)c(OC(C)=O)c(OC)c3)c(-c3ccccc3Cl)c2c1` it was 136 to 137 °C; in that of `OCc1cc(N2CCCC2)c(Br)cn1`, 108 to 110 °C.
Under `Cc1nccn1-c1nc(-c2ccc(Cl)cc2)c(CCCCO)o1` stands 110 to 111 °C.
On to `Nc1ccccc1Cc1n[nH]c(Cl)n1`, for which the melting point lay in the range of 162 to 165 °C.
In the case of `Cc1c(-c2ncncc2Cl)ssc1=S` it was 100 °C.
Under `CCC(C)(C)NCC(O)c1ccc(N)c(C#N)c1` (stereo not drawn) stands 143 °C; under `COc1cc(-c2nc3ccc(OCCCl)cc3n2Cc2ccccc2)cc(OC)c1OC`, 129 °C; under `COC(=O)C[C@H](CC(=O)O[Si](C)(C)C(C)(C)C)O[Si](C)(C)C(C)(C)C`, 44 to 46 °C.
Under `CCOP(=O)(Cc1c(C)cc(O)cc1C1CCCCC1)OCC` stands 73 °C; under `O=C(c1cc(N2CCCC(F)(F)C2)ccn1)N(O)Cc1ccccc1`, 140 to 145 °C; under `CCOC(=O)Cc1c[nH]c2nc(Nc3ccc(OC(C)C)cc3)nn2c1=O`, 235 to 240 °C.
`Clc1ccc2[nH]cc(C3=CCNCC3)c2c1` showed a melting point of 177 °C.
Under `Cc1cccc(C2=NCSC2(c2ccnc(C)c2)N2CCOC2=O)c1` (stereo not drawn) stands 80 to 82 °C; under `Clc1ccc2sc(=Nc3ccccc3)sc2c1`, 71 to 73 °C.
`O=C(O)c1c[nH]c2cc(C3CC3)nn2c1=O`: the melting point lay within 275 to 278 °C.
Under `CCOC(=O)C(=NNc1ccc([N+](=O)[O-])cc1)C(C)=O` stands 128 °C; under `CC1=Cc2cc(-c3nnnn3C)ccc2OC1(C)C`, 127 to 130 °C; under `COCCOCCOCCOCCOc1ccc(N)cc1`, 42 to 44 °C.
In the case of `c1ccc(-c2cc[nH]c2-c2ccccc2)cc1` it was 130 to 131 °C; in that of `CCCCCCCCCCCCCCCCCCOC(=O)C1CCC2OC2C1` (stereo not drawn), 32 to 34 °C.
In the case of `CCCCOc1cc(/C=C(\OCC)C(=O)O)ccc1OCCc1ccc(NC(C)=O)cc1` it was 160 °C.
With `COc1cccc(S(=O)(=O)Nc2ccc(Cl)nc2I)c1`, the melting point was 154 °C.
Under `N#CCC1(C#N)CCC2(CC1)OCCO2` stands 137 °C; under `Clc1cccc(OC2CCNc3ncc(-c4ccc(N5CCOCC5)cc4)cc32)c1` (stereo not drawn), 124 to 126 °C.
Under `CCOC(=O)CNC(=O)c1cc(Cl)ccc1N` stands 108 to 110 °C.
Under `O=C(Nc1cnc2c(c1)CCN2)c1cc2cc(F)ccc2n1Cc1cccc(F)c1` stands 230 to 232 °C; under `O=c1c2ccccc2sc2ccc(SC(F)(F)F)cc12`, 126 to 127 °C; under `COc1ccc(C=O)cc1C(C)(C)C`, 52 °C.
Take `O=C(Nc1cccc(-c2ccnc3c(C(=O)c4cccs4)cnn23)c1)c1ccco1`: the melting point is greater than 240 °C.
In the case of `CSc1nc(NCc2ccc(-c3ccsc3)cc2)n2ncc(C(C)C)c2n1` it was 141 to 143 °C; in that of `O=C1CC(/C=C/c2ccncc2)=Nc2ccccc2N1Cc1ccccc1`, 208 to 210 °C.
Take `COc1ccc(CC(=O)N[C@@H](C)CO)cc1OC`: the melting point was in the range of 122 to 125 °C.
In the case of `CC(C)(C)NS(=O)(=O)c1ccc(C(=O)c2ccc(F)cc2)cc1` it was 160 °C; in that of `CN(C)C(=S)Oc1ccc(S(=O)(=O)c2ccc(C#N)cc2)cc1`, 158 to 167 °C.
In the case of `COCCOc1ccc(CCCOC(=O)NS(=O)(=O)NC2CCC(C)CC2)c(Oc2ncc(C(F)(F)F)cc2Cl)c1` (stereo not drawn) it was 122 °C; in that of `O=C(N[C@H]1C(=O)N[C@@H]1CCO)OCc1ccccc1`, 120 to 121 °C.
Under `O=C(NCCNCc1cc2cc(OCc3ccccc3)ccc2o1)C12CC3CC(CC(C3)C1)C2` stands 169 to 170 °C.

(Values after a melting point compilation (Tetko et al.; mined from patent text by program, amines drawn as free bases though some values may be those of a salt).)
